Legend:
[1] = Partition coefficient, log P of the compound; assay type: physicochemical; settings: octanol/water
[2] = Lipophilicity, log D of the compound at pH 7.4; assay type: physicochemical; settings: buffer

Structure (SMILES) | logP ([1]; read-out: logP) | logD ([2]; read-out: logD) | logP [1] | logD [2]
Cc1ccc(-n2nc(C(C)(C)C)cc2NC(=O)Nc2ccc(-c3ccc(N)nc3)cc2)cc1 | 5.13 | 3.88 | – | –
Cc1ccc(-n2nc(C(C)(C)C)cc2NC(=O)Nc2ccc(-c3nncn3C)cc2)cc1 | 3.34 | 3.21 | – | –
Cc1ccc(-n2nc(C(C)(C)C)cc2NC(=O)Nc2ccc(-c3nnc(S)n3C)cc2)cc1 | – | – | 2.86 | 3.89
Cc1ccc(-n2nc(C(C)(C)C)cc2NC(=O)Nc2ccc(-n3ccnc3)cc2)cc1 | 4.35 | 3.85 | – | –
Cc1ccc(-n2nc(C(C)(C)C)cc2NC(=O)Nc2ccc(-c3csnn3)cc2)cc1 | 5.15 | 4.58 | – | –
COc1ccc(-c2ccc(NC(=O)Nc3cc(C(C)(C)C)nn3-c3ccc(C)cc3)cc2)cn1 | 4.25 | 4.02 | – | –
Cc1ccc(-n2nc(C(C)(C)C)cc2NC(=O)Nc2ccc(-n3cnc(C)c3)cc2)cc1 | 4.83 | 4.08 | – | –
Cc1ccc(-n2nc(C(C)(C)C)cc2NC(=O)Nc2ccc(-n3nnnc3C)cc2)cc1 | 3.86 | 3.81 | – | –
Cc1ccc(-n2nc(C(C)(C)C)cc2NC(=O)Nc2ccc(-n3cnnn3)cc2)cc1 | 4.14 | 3.79 | – | –
Cc1ccc(-n2nc(C(C)(C)C)cc2NC(=O)Nc2ccc(-n3cnc4c(N)ncnc43)cc2)cc1 | 3.98 | 4.05 | – | –
Cc1ccc(-n2nc(C(C)(C)C)cc2NC(=O)Nc2ccc(-c3cccnc3)cc2)cc1 | 4.84 | 4.25 | – | –
COc1cc(OC)nc(-c2ccc(NC(=O)Nc3cc(C(C)(C)C)nn3-c3ccc(C)cc3)cc2)n1 | > 5.4 | 3.94 | – | –
Cc1ccc(-n2nc(C(C)(C)C)cc2NC(=O)Nc2ccc(-n3cnnc3)cc2)cc1 | 4.07 | 3.94 | – | –
Cc1ccc(-n2nc(C(C)(C)C)cc2NC(=O)Nc2ccc(-n3cnc(Cl)c3Cl)cc2)cc1 | > 5.4 | 3.96 | – | –
Cc1ccc(-n2nc(C(C)(C)C)cc2NC(=O)Nc2ccc(-c3ccncc3)cc2)cc1 | > 5 | 3.58 | – | –
Cc1ccc(-n2nc(C(C)(C)C)cc2NC(=O)Nc2ccc(-n3cncc3C)cc2)cc1 | 4.6 | 4.33 | – | –
Cc1ccc(-n2nc(C(C)(C)C)cc2NC(=O)Nc2ccc(-c3cnco3)cc2)cc1 | 4.96 | 4.49 | – | –
Cc1ccc(-n2nc(C(C)(C)C)cc2NC(=O)Nc2ccc(-c3ccc(OCc4ccccc4)nc3)cc2)cc1 | > 5.4 | 3.94 | – | –

From ChEMBL document CHEMBL2424535, “Fragment-based discovery of focal adhesion kinase inhibitors” (Bioorg Med Chem Lett, 2013)
